Converted amounts (≈) assume the structure as drawn. Peptide text beside a SMILES is read from it. * marks the point of attachment. Bz = O=C(c1ccccc1)*
What was measured:
P. aeruginosa ATCC 9027 = type: cell-based, Pseudomonas aeruginosa; settings: P. aeruginosa ATCC 9027; Mueller-Hinton Broth, 18 h
Experimental: (§1) Examination of antimicrobial activity of the test compounds was conducted on reference strains of bacteria assigned to ESKAPE group of pathogens: Enterococcus faecium ATCC 700221, Klebsiella pneumoniae ATCC 700603, Acinetobacter baumannii ATCC BAA-1605, Pseudomonas aeruginosa ATCC 9027, Klebsiella aerogenes ATCC 13048 (formerly Enterobacter aerogenes) and reference strains of Staphylococcus aureus, namely: S. aureus ATCC 25923, S. aureus ATCC 6538, S. aureus ATCC 33591 (MRSA), S. aureus ATCC 9144 and S. aureus ATCC 12598. All the strains were stored at −80 °C in Roti®-Store cryo vials (Carl Roth GmbH, Karlsruhe, Germany) and before the tests were transferred into fresh Mueller-Hinton Medium (BioMaxima, Lublin, Poland) and incubated for 24 h at 37 °C. Subsequently, each bacterial inoculum was seeded on Mueller-Hinton Agar plates (BioMaxima) and incubated again for 24 h. The cultures prepared in this way were used in further antimicrobial assays and prepared as described above. The MIC values were determined by the broth microdilution method according to Clinical and Laboratory Standards Institute Protocol. For this purpose, initial inoculums of bacteria (0.5 × 10^5 colony forming unit (CFU)/mL) in Mueller–Hinton Broth were exposed to the ranging concentrations of compounds (0.5–256 µg/mL) and incubated for 18 h at 37 °C. The experiments were conducted on 96-well microtiter plates, with a final volume of 100 µL. Cell densities were adjusted spectrophotometrically (Multiskan™ GO Microplate Spectrophotometer, Thermo Scientific) at 600 nm. The MICs were taken as the lowest drug concentration at which a visible growth of microorganisms was inhibited. All experiments were conducted in triplicate and included positive (growth) and negative (sterility) controls.

[1] = tested on: human keratinocytes (HaCaT); type: cell-based; settings: HaCaT, MTT, 24 h
Experimental: The cytotoxicity of test compounds (IC50) was evaluated for human keratinocytes (HaCaT, ATCC) using classic MTT assay on 96-well plates. In this assay, a colorimetric determination of the cell metabolic activity was carried out. Specifically, the color intensity reflects the number of live cells that can be measured spectrophotometrically. […] A day after plating 500 cells per well, a series of concentrations (0.5–500 μg/mL) of the test compounds were added. Dimethyl sulfoxide (DMSO) was used as a control in cells at a final concentration of 1.0% (v/v), which was related to the maximal concentration of the solvent compounds used in the experiment. After 24 h of incubation with test compounds, a medium containing 1 mg/mL of MTT was added up to a final concentration of 0.5 mg/mL and subsequently incubated at 37 °C for 4 h. Then, the medium was aspirated and the formazan product was solubilized with DMSO. The background absorbance at 630 nm was subtracted from that at 570 nm for each well (Epoch, BioTek Instruments, Winooski, VT, USA). Six replicates were conducted for each concentration. All experiments were repeated at least twice and the resulting IC50 values were calculated with a GraFit 7 software (v. 7.0, Erithacus, Berkley, CA, USA).

[2] = tested on: human red blood cells (hRBCs); test: Hemolysis assay; type: cell-based; settings: concentration range 0.5–256 μg/mL
Experimental: Then the stock RBCs solution was added up to a final volume of 100 μL with a 4% concentration of erythrocytes (v/v). The control wells for 0 and 100% hemolysis were also prepared. They consisted of RBCs suspended in PBS and 1% of Triton-X 100, respectively.

K. aerogenes ATCC 13048 = type: cell-based, Klebsiella aerogenes; settings: K. aerogenes ATCC 13048; Mueller-Hinton Broth, 18 h
Experimental: as §1

[3] = tested on: A. baumannii ATCC BAA-1605; type: cell-based, Acinetobacter baumannii; settings: A. baumannii ATCC BAA-1605; Mueller-Hinton Broth, 18 h
Experimental: as §1

E. faecium ATCC 700221 = type: cell-based, Enterococcus faecium; settings: E. faecium ATCC 700221; Mueller-Hinton Broth, 18 h
Experimental: as §1

In the case of `CC[C@H](C)[C@H](NC(=O)[C@H](CCCNC(=N)N)NC(=O)[C@H](CCC(N)=O)NC(=O)[C@@H](NC(=O)[C@@H](NC(=O)[C@H](CCCNC(=N)N)NC(=O)[C@H](CCCCN)NC(=O)c1ccccc1)[C@@H](C)CC)C(C)C)C(=O)N[C@@H](CCCCN)C(=O)N[C@@H](CC(=O)O)C(=O)N[C@@H](Cc1ccccc1)C(=O)N[C@@H](CC(C)C)C(=O)N[C@@H](CCCNC(=N)N)C(N)=O` [VIII, Benzoic acid-KR12-NH2] (Bz-KRIVQRIKDFLR-NH2), the MIC (P. aeruginosa ATCC 9027) is reported as 8 µg/mL (≈ 4.78 µM), the IC50 [1] is reported as 40.50 µg/mL (≈ 24.2 µM) and the “hemolysis of hRBCs” value [2] is reported as “did not cause hemolysis”. The MIC (K. aerogenes ATCC 13048) was 16 µg/mL (≈ 9.55 µM), the MIC [3] was 16 µg/mL (≈ 9.55 µM) and the MIC (E. faecium ATCC 700221) was 1 µg/mL (≈ 0.597 µM).

— paper PMC7036753, “Lipidated Analogs of the LL-37-Derived Peptide Fragment KR12—Structural Analysis, Surface-Active Properties and Antimicrobial Activity” (International Journal of Molecular Sciences, 2020)
